From patent US6849661B2, “Treatment of abnormal increases in gastrointestinal motility with (R)-verapamil” (AGI Therapeutics, Ltd., priority 2002, dated 2005)
Several values for one entry are separate records, joined by “and”; a condition that tells them apart may be missing. Equal values may be shown once. Read-outs that look alike come from different tables or passages of the source.

Legend:
rat colon tissue = test: Relaxation of KCl (80 mM)-induced contractions in rat colon tissue (tissue bath); assay type: cell-based; conditions: for IC50 / pIC50 (−log M), Colon: KCl 80 mM contracted rat colon
Protocol: Rat colon tissue was prepared and mounted in a tissue bath by standard methods familiar to those skilled in the art. The physiological medium contained KCl at a concentration of 80 mM, which produces contractions of the colon tissue. […] Potency was expressed as the concentration producing 50% of […] (IC50) or as the negative logarithm of the IC50 (pIC50).
Other compounds were tested for their ability to relax the KCl contractions, or block the relaxing action of verapamil.

rat aortic tissue = conditions: for pIC50 (−log M), Aorta / IC50: KCl 80 mM contracted rat aorta; for IC50: read-out: IC50 (M), Aorta
Protocol: Rat aortic tissue was prepared and mounted in a tissue bath by standard methods familiar to those skilled in the art. The physiological medium contained KCl at a concentration of 80 mM, which produces contractions of the aortic tissue.

rat vas prostatic tissue = test: Contractions to electrical stimulation in rat vas deferens, prostatic portion; assay type: cell-based; conditions: FIG. 3
Description: (§1) In rat vas deferens there are two components to nerve stimulation, an […] component, dominant in the epididymal portion, and a non-adrenergic (purinergic) component, dominant in the prostatic portion. […] (Brown et al., Br J Pharmacol., 79:379-393, 1983).

[1] = test system: rat vas epididymal tissue; test: Contractions in rat vas deferens, epididymal portion (in the presence of nifedipine); assay type: cell-based; conditions: high concentrations, FIG. 3
Description: as §1

| SMILES | IC50 (rat colon tissue) [nM] | pIC50 (−log M), Colon (rat colon tissue) | pIC50 (−log M), Aorta (rat aortic tissue) | IC50 (rat aortic tissue) | effect on contractions to electrical stimulation in vas prostatic tissue (rat vas prostatic tissue) | effect on epididymal contraction [1] | ability to relax the KCl contractions (rat colon tissue; rat colon) | further results |
| --- | --- | --- | --- | --- | --- | --- | --- | --- |
| COc1ccc(CCN(C)CCC[C@](C#N)(c2ccc(OC)c(OC)c2)C(C)C)cc1OC [(R)-verapamil] | 851 | 6.07±0.16 −log M | 5.35±0.24 −log M | 4.47e-06 M and 4.78e-06 M | neither (R)-verapamil nor (S)-verapamil abolished contractions | reduced this epididymal contraction |  | pIC50 (−log M), Colon (rat colon tissue; listed as R Isomer): 6.07 −log M; times less potent than (S)-verapamil in the intestine (rat colon tissue; rat colon): three; pIC50 (−log M), Aorta (rat aortic tissue; listed as R Isomer): 5.35 −log M; times less potent than (S)-verapamil in the aorta (rat aortic tissue; rat aorta): 10 times; IC50 (rat aortic tissue; listed as R Isomer): 4.47e-06 M |
| COc1ccc(CCN(C)CCC[C@@](C#N)(c2ccc(OC)c(OC)c2)C(C)C)cc1OC [(S)-verapamil] | 295 | 6.53±0.13 −log M and 6.32±0.03 −log M | 6.32±0.03 −log M | 4.78e-07 M | neither (R)-verapamil nor (S)-verapamil abolished contractions | reduced this epididymal contraction |  | times more potent than (R)-verapamil in colon (rat colon tissue; rat colon, concentrations tested 1-100 μM): approximately 3 times |
| COc1ccc(Cl)cc1C(=O)NCCc1ccc(S(=O)(=O)NC(=O)NC2CCCCC2)cc1 [Glibenclamine] |  |  |  |  |  |  |  | ability to block the relaxing action of verapamil on KCl contractions (rat colon tissue; rat colon): did not block the verapamil-induced relaxations |
| COc1cc2nc(N3CCN(C(=O)c4ccco4)CC3)nc(N)c2cc1OC [Prazosin] |  |  |  |  |  |  | did not significantly relax KCl contractions |  |
| Cc1cccc(C)c1N=C1NCCCS1 [Xylazine] |  |  |  |  |  |  | small relaxation of the contractions, but only at the highest concentration tested (10^−4M) |  |
